# Results as given in patent publication US20180256541A1, “COMPOSITIONS HAVING ANTI-FUGETACTIC PROPERTIES FOR TREATMENT OF CANCER” (THE GENERAL HOSPITAL CORPORATION DBA MASSACHUSETTS GENERAL …, priority 2015, published 2018).
# Key:
# [1] = system: human CD3+ T cells; conditions: T cells pre-incubated with 0.01 μM to 10 mM AMD3100; tumor cells in Transwell; harvest after 3 h
# Method: For quantitative transmigration assays, purified human CD3^+ T cells (approximately 2×10^4 cells) are added to the upper chamber of a Transwell® insert in each well, to a total volume of 150 μl of Iscove's modified medium.
# To determine the anti-fugetactic concentration of AMD3100, the T cells are incubated with 0.01 μM to 10 mM AMD3100 prior to addition to the chamber.
# Cells are harvested from the lower chamber after 3 h, and cell counts are performed using a hemocytometer.
# [2] = system: human CD3+ T cells; conditions: CI of 1.0 is the control, triplicate wells
# Method: Freshly prepared and purified human CD3^+ T cells were prepared from healthy donor peripheral blood. 20,000 T cells were loaded into the upper chamber of the Transwell in control, chemotactic or fugetactic settings with AMD3100 at concentrations between 0.1 μM and 10 μM. Migrated cells were counted in the lower chamber and migration quantitated as previously described. Vianello et al. The Journal of Immunology, 2006, 176: 2902-2914; Righi et al., Cancer Res.; 71(16); 5522-34, each of which is incorporated herein in its entirety.
# We saw clear evidence of binary or bimodal chemotactic (FIG. 1; CI 2.3 at 1 μM) and fugetactic (FIG. 2; CI=1.6 at 0.1 μM) responses of human CD3+ T cells to AMD3100 (where a CI or chemotactic index of 1.0 is the control). All wells were run in triplicate.
structure (smiles),measurement,setting,value
"c1cc(CN2CCCNCCNCCCNCC2)ccc1CN1CCCNCCNCCCNCC1 [AMD3100, 1,1′-[1,4-phenylenebis(methylene)]bis [1,4,8,11-tetraazacyclotetradecane]]","effect on T cell migration (anti-fugetactic at lower, fugetactic at higher concentrations)",[1],bimodal effect
same,"CI (chemotactic index), chemotactic response","[2]; chemotactic setting, AMD3100 at 1 μM, FIG. 1",2.3
same,"CI (chemotactic index), fugetactic response","[2]; fugetactic setting, AMD3100 at 0.1 μM, FIG. 2",1.6
